Measured values: the supplement of paper PMC10307832

What was measured:
Test in all cases: relative viability (nuclei count vs DMSO), 5 days (fraction); higher = more cells survive
201T = tested on: 201T
Summary of the method: (§1)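 A single step with final 0.05% Triton X-100, 1% formaldehyde and 1 ug/ml Hoechst fixed the cells and stained nuclei 5 days after treatment. Lung cancer cell lines in 1536-well plates had been treated by pin tool the day after seeding with one drug alone or a fixed anchor-drug dose plus five library-drug doses (not always all listed) in √10 steps, and nuclei were counted on 4× images. Relative viability is the ratio of nuclei in treated wells to nuclei in vehicle wells, taken as the median of duplicate plates.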

BEN = tested on: BEN
Summary of the method: as §1

EMC-BAC-2 = tested on: EMC-BAC-2
Summary of the method: as §1

HARA = tested on: HARA
Summary of the method: as §1

HCC-44 = tested on: HCC-44
Summary of the method: as §1

LOU-NH91 = tested on: LOU-NH91
Summary of the method: as §1

NCI-H1395 = tested on: NCI-H1395
Summary of the method: as §1

NCI-H1993 = tested on: NCI-H1993
Summary of the method: as §1

NCI-H2023 = tested on: NCI-H2023
Summary of the method: as §1

NCI-H2087 = tested on: NCI-H2087
Summary of the method: as §1

NCI-H2126 = tested on: NCI-H2126
Summary of the method: as §1

NCI-H2347 = tested on: NCI-H2347
Summary of the method: as §1

NCI-H23 = tested on: NCI-H23
Summary of the method: as §1

NCI-H3122 = tested on: NCI-H3122
Summary of the method: as §1

NCI-H596 = tested on: NCI-H596
Summary of the method: as §1

NCI-H647 = tested on: NCI-H647
Summary of the method: as §1

NCI-H650 = tested on: NCI-H650
Summary of the method: as §1

NCI-H727 = tested on: NCI-H727
Summary of the method: as §1

NCI-H838 = tested on: NCI-H838
Summary of the method: as §1

Question: O=c1cc(N2CCOCC2)oc2c(-c3cccc4c3sc3ccccc34)cccc12 + CS(=O)(=O)CCNCc1ccc(-c2ccc3ncnc(Nc4ccc(OCc5cccc(F)c5)c(Cl)c4)c3c2)o1 [Lapatinib] (partner 2 µM) was tested. Which relative viability (201T; first compound 0.01 µM) did it give?
Answer: The relative viability was 1.11.

Question: What about the relative viability (201T; first compound 0.03162 µM) of the same molecule?
Answer: The relative viability was 1.03.

Question: And the relative viability (201T; first compound 0.1 µM)?
Answer: The relative viability was 1.06.

Question: What about the relative viability (201T; first compound 0.3162 µM) of the same molecule?
Answer: Its relative viability is 0.997.

Question: And the relative viability (201T; first compound 1 µM)?
Answer: Its relative viability is 0.968.

Question: What about the relative viability (BEN; first compound 0.01 µM) of the same molecule?
Answer: The relative viability was 0.662.

Question: What about the relative viability (BEN; first compound 0.03162 µM) of the same molecule?
Answer: The relative viability was 0.843.

Question: What about the relative viability (BEN; first compound 0.1 µM) of the same molecule?
Answer: Its relative viability is 0.69.

Question: And the relative viability (BEN; first compound 0.3162 µM)?
Answer: Its relative viability is 0.735.

Question: What about the relative viability (BEN; first compound 1 µM) of the same molecule?
Answer: Its relative viability is 0.67.

Question: And the relative viability (EMC-BAC-2; first compound 0.01 µM)?
Answer: The relative viability was 0.732.

Question: And the relative viability (EMC-BAC-2; first compound 0.03162 µM)?
Answer: Its relative viability is 0.946.

Question: And the relative viability (EMC-BAC-2; first compound 0.1 µM)?
Answer: Its relative viability is 0.97.

Question: And the relative viability (EMC-BAC-2; first compound 0.3162 µM)?
Answer: Its relative viability is 0.893.

Question: And the relative viability (EMC-BAC-2; first compound 1 µM)?
Answer: The relative viability was 0.848.

Question: And the relative viability (HARA; first compound 0.01 µM)?
Answer: The relative viability was 0.547.

Question: And the relative viability (HARA; first compound 0.03162 µM)?
Answer: Its relative viability is 0.756.

Question: And the relative viability (HARA; first compound 0.1 µM)?
Answer: The relative viability was 0.702.

Question: What about the relative viability (HARA; first compound 0.3162 µM) of the same molecule?
Answer: The relative viability was 0.797.

Question: What about the relative viability (HARA; first compound 1 µM) of the same molecule?
Answer: The relative viability was 0.665.

Question: And the relative viability (HCC-44; first compound 0.01 µM)?
Answer: Its relative viability is 1.01.

Question: And the relative viability (HCC-44; first compound 0.03162 µM)?
Answer: Its relative viability is 0.995.

Question: And the relative viability (HCC-44; first compound 0.1 µM)?
Answer: The relative viability was 1.11.

Question: And the relative viability (HCC-44; first compound 0.3162 µM)?
Answer: Its relative viability is 0.946.

Question: And the relative viability (HCC-44; first compound 1 µM)?
Answer: Its relative viability is 1.07.

Question: And the relative viability (LOU-NH91; first compound 0.01 µM)?
Answer: The relative viability was 0.775.

Question: What about the relative viability (LOU-NH91; first compound 0.03162 µM) of the same molecule?
Answer: Its relative viability is 0.774.

Question: What about the relative viability (LOU-NH91; first compound 0.1 µM) of the same molecule?
Answer: Its relative viability is 0.755.

Question: And the relative viability (LOU-NH91; first compound 0.3162 µM)?
Answer: The relative viability was 0.744.

Question: And the relative viability (LOU-NH91; first compound 1 µM)?
Answer: Its relative viability is 0.764.

Question: What about the relative viability (NCI-H1395; first compound 0.01 µM) of the same molecule?
Answer: Its relative viability is 0.997.

Question: What about the relative viability (NCI-H1395; first compound 0.03162 µM) of the same molecule?
Answer: Its relative viability is 1.18.

Question: And the relative viability (NCI-H1395; first compound 0.1 µM)?
Answer: Its relative viability is 0.826.

Question: What about the relative viability (NCI-H1395; first compound 0.3162 µM) of the same molecule?
Answer: The relative viability was 1.04.

Question: What about the relative viability (NCI-H1395; first compound 1 µM) of the same molecule?
Answer: The relative viability was 0.854.

Question: What about the relative viability (NCI-H1993; first compound 0.01 µM) of the same molecule?
Answer: Its relative viability is 0.823.

Question: And the relative viability (NCI-H1993; first compound 0.03162 µM)?
Answer: Its relative viability is 0.911.

Question: What about the relative viability (NCI-H1993; first compound 0.1 µM) of the same molecule?
Answer: The relative viability was 0.813.

Question: And the relative viability (NCI-H1993; first compound 0.3162 µM)?
Answer: Its relative viability is 0.764.

Question: And the relative viability (NCI-H1993; first compound 1 µM)?
Answer: Its relative viability is 0.829.

Question: And the relative viability (NCI-H2023; first compound 0.01 µM)?
Answer: Its relative viability is 0.88.

Question: What about the relative viability (NCI-H2023; first compound 0.03162 µM) of the same molecule?
Answer: The relative viability was 0.975.

Question: What about the relative viability (NCI-H2023; first compound 0.1 µM) of the same molecule?
Answer: The relative viability was 0.882.

Question: And the relative viability (NCI-H2023; first compound 0.3162 µM)?
Answer: Its relative viability is 0.826.

Question: What about the relative viability (NCI-H2023; first compound 1 µM) of the same molecule?
Answer: The relative viability was 0.887.

Question: And the relative viability (NCI-H2087; first compound 0.01 µM)?
Answer: The relative viability was 0.847.

Question: And the relative viability (NCI-H2087; first compound 0.03162 µM)?
Answer: The relative viability was 1.11.

Question: And the relative viability (NCI-H2087; first compound 0.1 µM)?
Answer: Its relative viability is 1.2.

Question: What about the relative viability (NCI-H2087; first compound 0.3162 µM) of the same molecule?
Answer: The relative viability was 0.938.

Question: And the relative viability (NCI-H2087; first compound 1 µM)?
Answer: The relative viability was 1.17.

Question: And the relative viability (NCI-H2126; first compound 0.01 µM)?
Answer: The relative viability was 0.826.

Question: And the relative viability (NCI-H2126; first compound 0.03162 µM)?
Answer: Its relative viability is 0.768.

Question: What about the relative viability (NCI-H2126; first compound 0.1 µM) of the same molecule?
Answer: The relative viability was 0.758.

Question: And the relative viability (NCI-H2126; first compound 0.3162 µM)?
Answer: Its relative viability is 0.748.

Question: And the relative viability (NCI-H2126; first compound 1 µM)?
Answer: The relative viability was 0.718.

Question: What about the relative viability (NCI-H2347; first compound 0.01 µM) of the same molecule?
Answer: Its relative viability is 0.953.

Question: What about the relative viability (NCI-H2347; first compound 0.03162 µM) of the same molecule?
Answer: Its relative viability is 0.965.

Question: What about the relative viability (NCI-H2347; first compound 0.1 µM) of the same molecule?
Answer: The relative viability was 0.93.

Question: And the relative viability (NCI-H2347; first compound 0.3162 µM)?
Answer: Its relative viability is 0.942.

Question: What about the relative viability (NCI-H2347; first compound 1 µM) of the same molecule?
Answer: Its relative viability is 0.973.

Question: And the relative viability (NCI-H23; first compound 0.01 µM)?
Answer: Its relative viability is 0.992.

Question: And the relative viability (NCI-H23; first compound 0.03162 µM)?
Answer: Its relative viability is 1.09.

Question: What about the relative viability (NCI-H23; first compound 0.3162 µM) of the same molecule?
Answer: The relative viability was 1.1.

Question: And the relative viability (NCI-H23; first compound 1 µM)?
Answer: The relative viability was 1.22.

Question: What about the relative viability (NCI-H3122; first compound 0.01 µM) of the same molecule?
Answer: Its relative viability is 1.04.

Question: What about the relative viability (NCI-H3122; first compound 0.03162 µM) of the same molecule?
Answer: Its relative viability is 0.961.

Question: And the relative viability (NCI-H3122; first compound 0.1 µM)?
Answer: The relative viability was 1.03.

Question: What about the relative viability (NCI-H3122; first compound 0.3162 µM) of the same molecule?
Answer: The relative viability was 0.953.

Question: What about the relative viability (NCI-H3122; first compound 1 µM) of the same molecule?
Answer: The relative viability was 0.97.

Question: And the relative viability (NCI-H596; first compound 0.01 µM)?
Answer: Its relative viability is 1.11.

Question: And the relative viability (NCI-H596; first compound 0.03162 µM)?
Answer: Its relative viability is 1.16.

Question: And the relative viability (NCI-H596; first compound 0.1 µM)?
Answer: The relative viability was 1.06.

Question: And the relative viability (NCI-H596; first compound 0.3162 µM)?
Answer: The relative viability was 1.16.

Question: And the relative viability (NCI-H596; first compound 1 µM)?
Answer: Its relative viability is 1.16.

Question: And the relative viability (NCI-H647; first compound 0.01 µM)?
Answer: Its relative viability is 0.95.

Question: And the relative viability (NCI-H647; first compound 0.03162 µM)?
Answer: Its relative viability is 1.22.

Question: What about the relative viability (NCI-H647; first compound 0.1 µM) of the same molecule?
Answer: The relative viability was 1.04.

Question: And the relative viability (NCI-H647; first compound 0.3162 µM)?
Answer: The relative viability was 1.22.

Question: What about the relative viability (NCI-H647; first compound 1 µM) of the same molecule?
Answer: The relative viability was 1.

Question: And the relative viability (NCI-H650; first compound 0.01 µM)?
Answer: The relative viability was 0.769.

Question: And the relative viability (NCI-H650; first compound 0.03162 µM)?
Answer: The relative viability was 0.973.

Question: What about the relative viability (NCI-H650; first compound 0.3162 µM) of the same molecule?
Answer: Its relative viability is 1.17.

Question: And the relative viability (NCI-H650; first compound 1 µM)?
Answer: Its relative viability is 0.77.

Question: What about the relative viability (NCI-H727; first compound 0.01 µM) of the same molecule?
Answer: The relative viability was 0.835.

Question: And the relative viability (NCI-H727; first compound 0.03162 µM)?
Answer: The relative viability was 0.973.

Question: What about the relative viability (NCI-H727; first compound 0.1 µM) of the same molecule?
Answer: The relative viability was 0.925.

Question: And the relative viability (NCI-H727; first compound 0.3162 µM)?
Answer: Its relative viability is 0.717.

Question: What about the relative viability (NCI-H727; first compound 1 µM) of the same molecule?
Answer: Its relative viability is 0.954.

Question: And the relative viability (NCI-H838; first compound 0.01 µM)?
Answer: Its relative viability is 1.08.

Question: And the relative viability (NCI-H838; first compound 0.03162 µM)?
Answer: Its relative viability is 0.915.

Question: And the relative viability (NCI-H838; first compound 0.1 µM)?
Answer: The relative viability was 0.984.

Question: What about the relative viability (NCI-H838; first compound 0.3162 µM) of the same molecule?
Answer: Its relative viability is 0.97.

Question: And the relative viability (NCI-H838; first compound 1 µM)?
Answer: Its relative viability is 0.969.
